The text below walks through data of patent publication US20070292888A1, “Methods for Measuring Enzyme Activities in Cells, Blood, Tumors and Tissues” (GEN-PATH PHARMACEUTICALS, INC., priority 2004, published 2007).

For the experiment, the target named is T1, kGDH (Homo sapiens, UniProt Q02218).
T1 construct: Log-phase growing cells were trypsinized and resuspended in TDM; endogenous in cells
T1 sequence (Q02218 41-1023): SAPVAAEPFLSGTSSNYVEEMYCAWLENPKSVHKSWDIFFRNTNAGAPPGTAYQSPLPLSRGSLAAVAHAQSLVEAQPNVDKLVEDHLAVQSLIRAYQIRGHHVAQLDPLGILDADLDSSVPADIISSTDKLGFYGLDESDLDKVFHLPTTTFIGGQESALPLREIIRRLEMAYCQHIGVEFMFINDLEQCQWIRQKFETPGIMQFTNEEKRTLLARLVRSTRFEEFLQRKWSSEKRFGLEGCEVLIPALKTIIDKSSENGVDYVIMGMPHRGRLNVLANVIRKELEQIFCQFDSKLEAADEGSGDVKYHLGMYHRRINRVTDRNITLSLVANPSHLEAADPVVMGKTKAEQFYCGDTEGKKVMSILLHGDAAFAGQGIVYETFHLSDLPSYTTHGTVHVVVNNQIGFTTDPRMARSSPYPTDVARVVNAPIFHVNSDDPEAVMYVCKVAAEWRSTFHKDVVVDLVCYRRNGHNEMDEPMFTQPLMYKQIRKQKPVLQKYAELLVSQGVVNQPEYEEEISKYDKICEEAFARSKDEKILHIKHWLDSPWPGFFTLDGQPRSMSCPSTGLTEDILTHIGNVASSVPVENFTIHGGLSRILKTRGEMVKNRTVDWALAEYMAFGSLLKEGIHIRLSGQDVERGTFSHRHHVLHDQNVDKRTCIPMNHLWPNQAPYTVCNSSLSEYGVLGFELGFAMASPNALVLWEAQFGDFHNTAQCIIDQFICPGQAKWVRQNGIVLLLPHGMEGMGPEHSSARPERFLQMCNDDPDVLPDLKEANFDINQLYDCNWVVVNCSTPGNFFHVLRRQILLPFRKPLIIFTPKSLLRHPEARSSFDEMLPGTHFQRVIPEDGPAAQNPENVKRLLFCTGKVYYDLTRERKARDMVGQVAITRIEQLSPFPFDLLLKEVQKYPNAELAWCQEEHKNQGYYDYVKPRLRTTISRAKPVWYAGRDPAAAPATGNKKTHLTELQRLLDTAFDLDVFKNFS
T1 sequence (P36957 68-453 partner): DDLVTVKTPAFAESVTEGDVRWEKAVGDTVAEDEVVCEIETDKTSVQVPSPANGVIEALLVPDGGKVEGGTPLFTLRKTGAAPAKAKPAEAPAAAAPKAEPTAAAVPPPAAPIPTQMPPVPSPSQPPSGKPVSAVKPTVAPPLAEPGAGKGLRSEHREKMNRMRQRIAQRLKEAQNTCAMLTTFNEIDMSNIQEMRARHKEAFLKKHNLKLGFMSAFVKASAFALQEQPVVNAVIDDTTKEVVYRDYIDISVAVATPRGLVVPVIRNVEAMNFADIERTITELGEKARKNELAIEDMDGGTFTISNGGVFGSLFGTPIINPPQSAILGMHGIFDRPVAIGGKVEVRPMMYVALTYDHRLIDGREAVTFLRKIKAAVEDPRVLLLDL
T1 sequence (P09622 36-509 partner): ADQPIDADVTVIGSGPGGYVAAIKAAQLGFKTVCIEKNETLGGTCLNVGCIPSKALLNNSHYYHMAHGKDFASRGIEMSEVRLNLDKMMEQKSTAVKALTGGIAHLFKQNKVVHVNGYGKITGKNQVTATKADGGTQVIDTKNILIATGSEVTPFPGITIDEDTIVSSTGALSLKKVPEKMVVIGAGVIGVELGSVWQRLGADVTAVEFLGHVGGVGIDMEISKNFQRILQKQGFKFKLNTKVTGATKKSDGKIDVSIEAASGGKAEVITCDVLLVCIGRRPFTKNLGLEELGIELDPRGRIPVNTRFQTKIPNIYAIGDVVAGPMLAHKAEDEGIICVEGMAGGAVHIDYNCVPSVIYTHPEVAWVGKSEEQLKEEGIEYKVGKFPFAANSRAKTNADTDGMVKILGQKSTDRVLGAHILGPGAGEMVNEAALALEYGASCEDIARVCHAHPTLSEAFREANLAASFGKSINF
Nature of the experiment: Cell-based kGDH inhibition in thiamine-depleted media, 96-well format. To be noted: treated cells, 48 hours treatment. The protocol: We determined the IC50 of compounds that inhibit the activity of the TPP utilizing enzymes TK, kGDH and PDH in a convenient 96-well format using an optimized version of the method described in the previous Examples.
The high thiamine levels in conventional cell culture media (e.g., DMEM (12 μM), RPMI (3 μM)) masks the inhibitory effect of such inhibitors. To measure the IC50 of such inhibitors, thus, a thiamine depleted DMEM, containing all the ingredients of normal DMEM except for thiamine (HyClone, custom order), was used. Thiamine-depleted media (TDM) is made up with thiamine-depleted DMEM, 10% FBS, which contains negligible amount of thiamine (estimated to be ˜3-5% nM) and 1% Penicillin-streptomycin.
Log-phase growing cells were trypsinized and resuspended in TDM. Optimization of the initial cell counts is recommended for each cell line to ensure that enzyme activity can be observed at the beginning and that healthy growth can continue. For cell lines that have a doubling time of approximately 24 hours and cellular transketolase levels high enough to be reliably detected with five thousand (5K) cells such as HCT116 and HT1080, 8K cells are recommended.
Media containing 8K cells (95 μl) were used to seed individual wells in a 96-well clear-bottom cell cultured treated sterile plate. […] Enzymatic inhibition was expressed as percent of control wells that were not treated with compounds. […]

On to `Cc1ccc(C[n+]2csc(CCO)c2C)c(N)n1` [N3PT, 3-[(2-amino-6-methyl-3-pyridinyl)methyl]-5-(2-hydroxyethyl)-4-methyl thiazolium], for which 86 nM corresponded to half-maximal inhibition (IC50).
